In US20220362386A1, “LIQUID COMPOSITIONS COMPRISING A LEVODOPA AMINO ACID CONJUGATE AND USES THEREOF” (NeuroDerm, Ltd., priority 2019, published 2022):
Structures can show the parent of a compound that is named as a salt. Where two headings read alike, the source gives them in different places. Non-standard residues stand in square brackets, D forms with d. Residues, ends and D or L forms follow the SMILES beside them. Dopa = N[C@@H](Cc1ccc(O)c(O)c1)C(=O)O

Tests used:
human plasma = assay: Protein binding, equilibrium dialysis method; assay type: in vitro ADME; settings: 1.0E-05M; 37° C., 4 h
Experimental: (§1) The protein binding values of various LDAA compounds in their TFA salt form (10^−5M) were tested in human plasma. The equilibrium dialysis technique was used to separate the fraction of the test compound that was unbound from the fraction of the test compound that bound to proteins during the test. The test was performed on 96-well plates in a dialysis block constructed from Teflon™.
(§2) The protein containing matrix used was human plasma, wherein the assay matrix was human serum albumin and alpha-1 acid glycoprotein. The protein matrix was spiked with each test compound at 10 μM (by default, n=2) with a final DMSO concentration of 1%. The dialysate compartment is loaded with phosphate buffered saline (PBS, pH 7.4), and the sample compartment was loaded with an equal volume of the spiked protein matrix. The dialysis plate was then sealed and incubated at 37° C. for 4 h.
(§3) Following the incubation, samples were taken from each compartment, diluted with PBS followed by the addition of acetonitrile, after which the samples were centrifuged. The supernatants were collected and analyzed by HPLC-MS/MS. The HPLC tests included a binary LC pump with an autosampler, a C18 column (2×20 mm), and gradient elution. The HPLC conditions were adjusted when necessary.
(§4) A control sample (n=2) was prepared from the spiked protein matrix in the same manner; however, no dialysis was performed on the control. It is noted that the control sample served as the bases for the recovery determination.
(§5) Acebutolol, quinidine, and warfarin were used in each assay as reference compounds, wherein it is known that those reference compounds provide low, medium and high human plasma protein binding values, respectively.
(§6) The % of the tested compound that is bound to proteins and the recovery values were calculated as follows:
(§7) Protein binding (%)=100×(Areap−Areab)/Areap
(§8) Recovery (%)=100×(Areap−Areab)/Areac
(§9) The determination of the recovery % serves as an indicator of reliability of the calculated protein binding value. […] This is most likely due to non-specific binding or degradation of the test compound. It is noted that a recovery of above 60% is considered to be reliable, while under 60% recovery, the results of the test are considered to be unreliable.

[1] = Protein binding, equilibrium dialysis method; assay type: in vitro ADME, human; settings: human, human plasma, pH 7.4, 1.0E-05M
Experimental: as §1, §2, §3, §4, §5, §6, §7, §8, §9

P-gp = assay: In-vitro absorption, Caco-2 A-B permeability; assay type: in vitro ADME, human; settings: human, Caco-2, pH 7.4, with verapamil 100 μM on both the A and B sides, Caco-2 A-B, in the presence of verapamil
Experimental: (§10) Conditions may be adjusted when necessary.
(§11) D denotes donor and R is receiver. […] V is the volume of the donor or receiver.
(§12) The test was performed with and without verapamil, which is a permeation inhibitor, and the results are presented in Tables 22 (without verapamil) and 34 (with verapamil).

[2] = In-vitro absorption, Caco-2 A-B permeability; assay type: in vitro ADME, human; settings: human, Caco-2, pH 7.4, Caco-2 A-B, without verapamil; for Papp A→B at 60 min, 10 μM: 1.0E−05M
Experimental: as §10, §11, §12

[3] = In-vitro metabolism of LDAA compounds using liver microsomes; assay type: in vitro ADME, human; settings: for half-life at 0.1 μM / microsomal CLint at 0.1 μM: both sexes, human, pooled human liver microsomes; for half-life at 0.1 μM: pH 7.4, 1.0E−07M, 0.1 mg/mL microsomal protein; for microsomal CLint at 0.1 μM: pH 7.4, calculated from the half-life; for microsomal CLint at 0.1 μM / % Compound Remaining 1st / % Compound Remaining 2nd / % Compound Remaining Mean: 1.0E−07M
Procedure, shortened: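 Compounds at 0.1 μM were incubated at 37° C with pooled mixed-gender human liver microsomes (0.1 mg/mL protein) in phosphate buffer pH 7.4 plus an NADPH-generating system for 0–60 min. Remaining parent was quantified by HPLC-MS/MS versus time zero; t1/2 came from first-order fits, and Clint = 0.693/(t1/2×protein concentration).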

[4] = read-out: Percent Recovery Mean
[5] = read-out: Half-Life (minute) 1st
[6] = read-out: Half-Life (minute) 2nd
[7] = read-out: Half-Life (minute) Mean

NCCCC[C@H](NC(=O)[C@@H](N)Cc1ccc(O)c(O)c1)C(=O)O [LD-Lys TFA salt, Levodopa Lysine TFA Salt] (H-[Dopa]-Lys-OH)
% Protein Bound 1st (human plasma): 59.5%
% Protein Bound 2nd (human plasma): 53.1%
% Protein Bound Mean (human plasma): 56%
recovery at 4 h, 10 μM ([1]; read-out: % Recovery 1st): 12%
recovery at 4 h, 10 μM ([1]; read-out: % Recovery 2nd): 19%
recovery at 4 h, 10 μM ([1]; read-out: % Recovery Mean): 16%
recovery at 60 min, 10 μM (P-gp; read-out: Percent Recovery 1st): 33%
recovery at 60 min, 10 μM (P-gp; read-out: Percent Recovery 2nd): 33%
recovery at 60 min, 10 μM (P-gp; [4]): 33%
Papp A→B at 60 min, 10 μM ([2]; read-out: Permeability 1st): 0.12 ×10⁻⁶ cm/s
Papp A→B at 60 min, 10 μM ([2]; read-out: Permeability 2nd): 0.09 ×10⁻⁶ cm/s
Papp A→B at 60 min, 10 μM ([2]; read-out: Permeability Mean): < 0.1 ×10⁻⁶ cm/s
recovery at 60 min, 10 μM ([2]; read-out: Percent Recovery 1st): 21%
recovery at 60 min, 10 μM ([2]; read-out: Percent Recovery 2nd): 38%
recovery at 60 min, 10 μM [2, 4]: 30%
half-life at 0.1 μM [3, 5]: 91.3 min
half-life at 0.1 μM [3, 6]: 58.3 min
half-life at 0.1 μM [3, 7]: > 60 min
microsomal CLint at 0.1 μM [3]: < 116 µL/min/mg
% Compound Remaining 1st ([3]; incubation time 0 minutes): 100%
% Compound Remaining 2nd ([3]; incubation time 0 minutes): 100%
% Compound Remaining Mean ([3]; incubation time 0 minutes): 100%
% Compound Remaining 1st ([3]; incubation time 15 minutes): {123.5%
% Compound Remaining 2nd ([3]; incubation time 15 minutes): 96.7%
% Compound Remaining Mean ([3]; incubation time 15 minutes): 97%
% Compound Remaining 1st ([3]; incubation time 30 minutes): 64.2%
% Compound Remaining 2nd ([3]; incubation time 30 minutes): 83.5%
% Compound Remaining Mean ([3]; incubation time 30 minutes): 74%
% Compound Remaining 1st ([3]; incubation time 45 minutes): 76.7%
% Compound Remaining 2nd ([3]; incubation time 45 minutes): {43.7} %
% Compound Remaining Mean ([3]; incubation time 45 minutes): 77%
% Compound Remaining 1st ([3]; incubation time 60 minutes): 59.5%
% Compound Remaining 2nd ([3]; incubation time 60 minutes): 50.4%
% Compound Remaining Mean ([3]; incubation time 60 minutes): 55%

N[C@@H](Cc1ccc(O)c(O)c1)C(=O)N[C@@H](Cc1c[nH]c2ccccc12)C(=O)O [LD-Trp TFA salt, Levodopa Tryptophan] (H-[Dopa]-Trp-OH)
% Protein Bound 1st (human plasma): 54.8%
% Protein Bound 2nd (human plasma): 66%
% Protein Bound Mean (human plasma): 60%
recovery at 4 h, 10 μM ([1]; read-out: % Recovery 1st): 68%
recovery at 4 h, 10 μM ([1]; read-out: % Recovery 2nd): 74%
recovery at 4 h, 10 μM ([1]; read-out: % Recovery Mean): 71%
recovery at 60 min, 10 μM (P-gp; read-out: Percent Recovery 1st): 50%
recovery at 60 min, 10 μM (P-gp; read-out: Percent Recovery 2nd): 45%
recovery at 60 min, 10 μM (P-gp; [4]): 47%
Papp A→B at 60 min, 10 μM ([2]; read-out: Permeability 1st): 0.04 ×10⁻⁶ cm/s
Papp A→B at 60 min, 10 μM ([2]; read-out: Permeability 2nd): 0.03 ×10⁻⁶ cm/s
recovery at 60 min, 10 μM ([2]; read-out: Percent Recovery 1st): 52%
recovery at 60 min, 10 μM ([2]; read-out: Percent Recovery 2nd): 51%
recovery at 60 min, 10 μM [2, 4]: 51%
half-life at 0.1 μM [3, 5]: 64 min
half-life at 0.1 μM [3, 6]: 61.4 min
half-life at 0.1 μM [3, 7]: > 60 min
microsomal CLint at 0.1 μM [3]: < 116 µL/min/mg
% Compound Remaining 1st ([3]; incubation time 0 minutes): 100%
% Compound Remaining 2nd ([3]; incubation time 0 minutes): 100%
% Compound Remaining Mean ([3]; incubation time 0 minutes): 100%
% Compound Remaining 1st ([3]; incubation time 15 minutes): 108.6%
% Compound Remaining 2nd ([3]; incubation time 15 minutes): {96.6} %
% Compound Remaining Mean ([3]; incubation time 15 minutes): 109%
% Compound Remaining 1st ([3]; incubation time 30 minutes): 115.2%
% Compound Remaining 2nd ([3]; incubation time 30 minutes): 92.2%
% Compound Remaining Mean ([3]; incubation time 30 minutes): 104%
% Compound Remaining 1st ([3]; incubation time 45 minutes): 70.5%
% Compound Remaining 2nd ([3]; incubation time 45 minutes): 63.1%
% Compound Remaining Mean ([3]; incubation time 45 minutes): 67%
% Compound Remaining 1st ([3]; incubation time 60 minutes): 55.1%
% Compound Remaining 2nd ([3]; incubation time 60 minutes): 51.6%
% Compound Remaining Mean ([3]; incubation time 60 minutes): 53%

N[C@@H](CSC[C@@H](NC(=O)[C@@H](N)Cc1ccc(O)c(O)c1)C(=O)O)C(=O)O (single isomer, unassigned; peak 1) [LD-LA1 TFA salt, Levodopa Lanthionine Peak 1 TFA Salt]
% Protein Bound 1st (human plasma): 24.4%
% Protein Bound 2nd (human plasma): 27.8%
% Protein Bound Mean (human plasma): 26%
recovery at 4 h, 10 μM ([1]; read-out: % Recovery 1st): 75%
recovery at 4 h, 10 μM ([1]; read-out: % Recovery 2nd): 71%
recovery at 4 h, 10 μM ([1]; read-out: % Recovery Mean): 73%
recovery at 60 min, 10 μM (P-gp; read-out: Percent Recovery 1st): 58%
recovery at 60 min, 10 μM (P-gp; read-out: Percent Recovery 2nd): 67%
recovery at 60 min, 10 μM (P-gp; [4]): 62%
Papp A→B at 60 min, 10 μM ([2]; read-out: Permeability 1st): 0.2 ×10⁻⁶ cm/s
Papp A→B at 60 min, 10 μM ([2]; read-out: Permeability 2nd): 0.21 ×10⁻⁶ cm/s
Papp A→B at 60 min, 10 μM ([2]; read-out: Permeability Mean): 0.2 ×10⁻⁶ cm/s
recovery at 60 min, 10 μM ([2]; read-out: Percent Recovery 1st): 82%
recovery at 60 min, 10 μM ([2]; read-out: Percent Recovery 2nd): 77%
recovery at 60 min, 10 μM [2, 4]: 79%
half-life at 0.1 μM [3, 5]: 139 min
half-life at 0.1 μM [3, 6]: 87.3 min
half-life at 0.1 μM [3, 7]: > 60 min
microsomal CLint at 0.1 μM [3]: < 116 µL/min/mg
% Compound Remaining 1st ([3]; incubation time 0 minutes): 100%
% Compound Remaining 2nd ([3]; incubation time 0 minutes): 100%
% Compound Remaining Mean ([3]; incubation time 0 minutes): 100%
% Compound Remaining 1st ([3]; incubation time 15 minutes): {129.4%
% Compound Remaining 2nd ([3]; incubation time 15 minutes): 110.4%
% Compound Remaining Mean ([3]; incubation time 15 minutes): 110%
% Compound Remaining 1st ([3]; incubation time 30 minutes): {125.6%
% Compound Remaining 2nd ([3]; incubation time 30 minutes): 77.6%
% Compound Remaining Mean ([3]; incubation time 30 minutes): 78%
% Compound Remaining 1st ([3]; incubation time 45 minutes): 79.7%
% Compound Remaining 2nd ([3]; incubation time 45 minutes): 77.9%
% Compound Remaining Mean ([3]; incubation time 45 minutes): 79%
% Compound Remaining 1st ([3]; incubation time 60 minutes): 74.2%
% Compound Remaining 2nd ([3]; incubation time 60 minutes): 65.6%
% Compound Remaining Mean ([3]; incubation time 60 minutes): 70%
